# Test results taken from patent US20260097037A1, “FUSED RING COMPOUND HAVING GLP-1 RECEPTOR AGONIST EFFECT” (Shionogi & Co., Ltd., priority 2022, published 2026).
# Target: T1, Human GLP-1 receptor stably expressing cells (hGLP-1R/CHO-K1 cells) (Homo sapiens, UniProt P43220)
# T1 construct: expressed in transfected cells
# Assay: Measurement of GLP-1 receptor agonist activity (cAMP assay)
# Assay type: cell-based
# Details: for Emax: CHO-K1, maximum effect, cAMP with 2 nM human GLP-1 (7-36) = 100%, DMSO only = 0%, read-out: Emax; for EC50: increase in cAMP concentration in hGLP-1R/CHO-K1 cells, 37° C. 1 hour
# In short: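 hGLP-1R/CHO-K1 cells (cryopreserved) incubated with compound and forskolin in HBSS with 0.1% BSA, IBMX and RO20-1724, 1 h at 37° C; cAMP read by HTRF. EC50 and Emax from cAMP rise, normalised to 2 nM human GLP-1 (7-36) (100%) and DMSO (0%).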
# T1 sequence (P43220 24-463): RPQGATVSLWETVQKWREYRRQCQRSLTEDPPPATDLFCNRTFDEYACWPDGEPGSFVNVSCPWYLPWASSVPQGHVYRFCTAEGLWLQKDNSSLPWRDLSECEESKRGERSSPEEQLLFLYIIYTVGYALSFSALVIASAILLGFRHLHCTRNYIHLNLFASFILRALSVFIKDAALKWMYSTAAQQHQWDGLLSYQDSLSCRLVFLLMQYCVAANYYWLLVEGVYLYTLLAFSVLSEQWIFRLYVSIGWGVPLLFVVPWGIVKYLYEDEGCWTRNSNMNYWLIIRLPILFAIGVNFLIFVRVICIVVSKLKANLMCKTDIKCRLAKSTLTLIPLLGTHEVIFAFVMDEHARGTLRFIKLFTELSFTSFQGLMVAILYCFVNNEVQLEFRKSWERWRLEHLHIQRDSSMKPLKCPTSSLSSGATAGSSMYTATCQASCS
Emax,EC50,SMILES
110%,0.211 nM,C[C@H]1c2nc(NCc3ccc(C#N)cc3F)c(C(F)(F)F)cc2CCN1Cc1nc2c(F)cc(C(=O)O)cc2n1C[C@@H]1CCO1 [Compound I-193]
124%,0.176 nM,C[C@H]1c2nc(OCc3ccc(F)cc3F)c(Cl)cc2CCN1Cc1nc2ccc(C(=O)O)cc2n1C[C@@H]1CCO1 [Compound I-019]
105%,0.0187 nM,COc1cc(C(=O)O)cc2c1nc(CN1CCc3cc(Cl)c(OCc4ccc(Cl)cc4Cl)nc3[C@@H]1C)n2C[C@@H]1CCO1 [Compound I-070]
123%,0.417 nM,Cc1ccc(COc2nc3c(cc2C(F)F)CCN(Cc2nc4ccc(C(=O)O)cc4n2C[C@@H]2CCO2)[C@H]3C)cc1 [Compound I-053]
122%,0.0463 nM,C[C@H]1c2nc(OCc3ccc(Cl)cc3F)c(C(F)F)cc2CCN1Cc1nc2ccc(C(=O)O)c(F)c2n1C[C@@H]1CCO1 [Compound I-116]
93.7%,3.31 nM,C[C@H]1c2nc(OCc3ncc(Cl)s3)c(C(F)(F)F)cc2CCN1Cc1nc2ccc(C(=O)O)cc2n1C[C@@H]1CCO1 [Compound I-048]
113%,0.105 nM,C[C@H]1c2nc(OCc3ccc(Cl)cc3)c(C(F)F)cc2CCN1Cc1nc2ccc(C(=O)O)c(F)c2n1C[C@@H]1CCO1 [Compound I-118]
105%,0.147 nM,C[C@H]1c2nc(OCc3c(F)cc(Cl)cc3F)c(C(F)F)cc2CCN1Cc1nc2ccc(C(=O)O)cc2n1C[C@@H]1CCO1 [Compound I-060]
88.3%,9.31 nM,C[C@H]1c2nc(OCc3ccc(Cl)cc3F)ncc2CCN1Cc1nc2ccc(C(=O)O)cc2n1C[C@@H]1CCO1 [Compound I-080]
112%,0.307 nM,C[C@H]1c2nc(OCc3ccc(Cl)cc3F)c(C(F)(F)F)cc2CCN1Cc1nc2sc(C(=O)O)cc2n1C[C@@H]1CCO1 [Compound I-049]
114%,0.266 nM,C[C@H]1c2nc(NCc3ncc(Cl)cc3F)c(C(F)(F)F)cc2CCN1Cc1nc2c(F)cc(C(=O)O)cc2n1C[C@@H]1CCO1 [Compound I-191]
111%,0.345 nM,C[C@H]1c2nc(NCc3ccc(Cl)cn3)c(C(F)(F)F)cc2CCN1Cc1nc2c(Cl)cc(C(=O)O)cc2n1C[C@@H]1CCO1 [Compound I-197]
100%,0.0849 nM,C[C@H]1c2nc(OCc3ccc(Cl)cc3)c(Cl)cc2CCN1Cc1nc2c(F)cc(C(=O)O)cc2n1C[C@@H]1CCO1 [Compound I-082]
136%,0.17 nM,C[C@H]1c2nc(OCc3ccc(Cl)cc3)c(Cl)cc2CCN1Cc1nc2ccc(C(=O)O)cc2n1C[C@@H]1CCO1 [Compound I-017]
53.3%,4210 nM,C[C@H]1c2c(cc(C(F)(F)F)c3c2O[C@](C)(c2ccc(Cl)cn2)O3)CCN1Cc1nc2ccc(C(=O)O)cc2n1C[C@@H]1CCO1 [Compound I-026]
97%,0.902 nM,C[C@H]1c2nc(OCc3ccccc3Cl)c(C(F)F)cc2CCN1Cc1nc2ccc(C(=O)O)cc2n1C[C@@H]1CCO1 [Compound I-055]
108%,0.611 nM,C[C@H]1c2nc(NCc3ccc(Cl)cn3)c(C(F)(F)F)cc2CCN1Cc1nc2c(F)cc(C(=O)O)cc2n1C[C@@H]1CCO1 [Compound I-196]
115%,0.0293 nM,COc1cc(C(=O)O)cc2c1nc(CN1CCc3cc(C#N)c(OCc4cc(F)c(Cl)cc4F)nc3[C@@H]1C)n2C[C@@H]1CCO1 [Compound I-146]
113%,0.432 nM,C[C@H]1c2nc(OCc3ccccc3Cl)c(Cl)cc2CCN1Cc1nc2ccc(C(=O)O)c(F)c2n1C[C@@H]1CCO1 [Compound I-036]

Emax,EC50,SMILES
112%,0.101 nM,C[C@H]1c2nc(OCc3ccc(Cl)cc3)c(C(F)F)cc2CCN1Cc1nc2c(F)cc(C(=O)O)cc2n1C[C@@H]1CCO1 [Compound I-109]
117%,0.469 nM,C[C@H]1c2nc(OCc3cc(F)c(Cl)cc3F)c(C(F)F)cc2CCN1Cc1nc2ccc(C(=O)O)nc2n1C[C@@H]1CCO1 [Compound I-102]
130%,0.443 nM,C[C@H]1c2nc(OCc3ccc(F)cc3)c(Cl)cc2CCN1Cc1nc2ccc(C(=O)O)cc2n1C[C@@H]1CCO1 [Compound I-023]
129%,0.0679 nM,C[C@H]1c2nc(OCc3cc(F)c(Cl)cc3F)c(Cl)cc2CCN1Cc1nc2ccc(C(=O)O)c(F)c2n1C[C@@H]1CCO1 [Compound I-040]
128%,0.171 nM,C[C@H]1c2nc(OCc3ccc(Cl)c4ccoc34)c(C(F)(F)F)cc2CCN1Cc1nc2ccc(C(=O)O)cc2n1C[C@@H]1CCO1 [Compound I-014]
112%,0.125 nM,C[C@H]1c2nc(OCc3ccc(C#N)cc3F)c(Cl)cc2CCN1Cc1nc2ccc(C(=O)O)cc2n1C[C@@H]1CCO1 [Compound I-022]
108%,1.25 nM,C[C@H]1c2cc(OCc3c(F)cc(Cl)cc3F)c(C(F)F)cc2CCN1Cc1nc2ccc(C(=O)O)cc2n1C[C@@H]1CCO1 [Compound I-012]
104%,0.0232 nM,COc1cc(C(=O)O)cc2c1nc(CN1CCc3cc(Cl)c(OCc4c(F)cc(Cl)cc4F)cc3[C@@H]1C)n2C[C@@H]1CCO1 [Compound I-074]
108%,1.58 nM,C[C@H]1c2c(cc(Cl)c3c2OC(C)(c2ccc(Cl)cn2)O3)CCN1Cc1nc2ccc(C(=O)O)cc2n1C[C@@H]1CCO1 (stereo partly shown) [Compound I-092]
126%,0.0595 nM,C[C@H]1c2nc(OCc3ccc(Cl)cc3Cl)c(Cl)cc2CCN1Cc1nc2ccc(C(=O)O)c(F)c2n1C[C@@H]1CCO1 [Compound I-038]
96.7%,0.179 nM,C[C@H]1c2nc(OCc3ccc(Cl)cn3)c(Cl)cc2CCN1Cc1nc2c(F)cc(C(=O)O)cc2n1C[C@@H]1CCO1 [Compound I-081]
134%,0.0165 nM,COc1cc(C(=O)O)cc2c1nc(CN1CCc3cc(C(F)F)c(OCc4ccc(C#N)cc4F)nc3[C@@H]1C)n2C[C@@H]1CCO1 [Compound I-135]
118%,0.314 nM,C[C@H]1c2nc(OCc3cc(F)c(Cl)cc3F)c(Cl)cc2CCN1Cc1nc2ccc(C(=O)O)nc2n1C[C@@H]1CCO1 [Compound I-031]
119%,0.148 nM,C[C@H]1c2nc(OCc3ccc(F)cc3F)c(C(F)F)cc2CCN1Cc1nc2ccc(C(=O)O)c(F)c2n1C[C@@H]1CCO1 [Compound I-121]
107%,0.0831 nM,C[C@H]1c2nc(NCc3cc(F)c(Cl)cc3F)c(C(F)(F)F)cc2CCN1Cc1nc2c(F)cc(C(=O)O)cc2n1C[C@@H]1CCO1 [Compound I-175]
124%,0.117 nM,C[C@H]1c2nc(OCc3c(F)cc(Cl)cc3F)c(Cl)cc2CCN1Cc1nc2ccc(C(=O)O)cc2n1C[C@@H]1CCO1 [Compound I-024]
103%,0.137 nM,C[C@H]1c2nc(NCc3ccc(C#N)cc3F)c(C(F)(F)F)cc2CCN1Cc1nc2c(Cl)cc(C(=O)O)cc2n1C[C@@H]1CCO1 [Compound I-194]
123%,0.0514 nM,COc1cc(C(=O)O)cc2c1nc(CN1CCc3cc(C(F)(F)F)c(NCc4ccc(C#N)cc4F)nc3[C@@H]1C)n2C[C@@H]1CCO1 [Compound I-195]
115%,0.58 nM,C[C@H]1c2nc(OCc3ccc(Cl)cc3Cl)c(C(F)F)cc2CCN1Cc1nc2ccc(C(=O)O)nc2n1C[C@@H]1CCO1 [Compound I-100]
